Measured values published in patent US8183237B2, “Benzenesulfonanilide compounds suitable for treating disorders that respond to modulation of the serotonin 5-HT6 receptor” (Abbott Laboratories, priority 2009, dated 2012).
Structures can show the parent of a compound that is named as a salt. Where two headings read alike, the source gives them in different places.

Assays:
[1] = molecular target: T1, h-5-HT6 receptor (Homo sapiens, UniProt P50406); assay: 5-HT6 receptor binding assay (displacement of [3H]-LSD)
T1 construct: expressed in transfected cells; host or cells: HEK293
Procedure: Displacement of radioligands binding to the following cloned human receptors
(§1) 1. Preparation of Membranes by Ultrasonic Treatment and Differential Centrifugation
Cells from stable clonal cell lines expressing the corresponding receptor (5-HT6, α1-adrenergic, dopamine D2 or histamine H1 receptors) were washed with PBS (w/o Ca^++, Mg^++) and harvested in PBS with 0.02% EDTA. The cells were collected by centrifugation at 500 g for 10 min. at 4° C., washed with PBS and centrifuged (500 g, 10 min. 4° C.). The pellets were stored at −80° C. until use. For membrane preparation, the thawed cell pellet was resuspended in ice-cold sucrose buffer (0.25 M sucrose, 10 mM Hepes (pH 7.4), 1 mM Phenylmethylsulfonyl fluoride (PMSF) in DMSO, 5 μg/ml Pepstatin-A, 3 mM EDTA, 0.025% Bacitracin) and homogenized with a Branson Sonifier W-250 (Settings: Timer 4; Output Control 3; Duty Cycle constant; 2 to 3 cycles). Cell disruption was checked with the aid of a microscope. Remaining unbroken cells were pelleted at 1.000 g for 10 min. at 4° C. The sucrose buffer supernatant was then centrifuged at 60.000 g for 1 h at 4° C. (Beckman Ultrazentrifuge XL 80). The pellet was resuspended in 30 ml ice-cold Tris buffer (20 mM TRIS (pH 7.4), 5 μg/ml Pepstatin A, 0.1 mM PMSF, 3 mM EDTA) by pipetting through a 10 ml serological pipet and centrifuged for 1 h at 4° C. at 60.000 g. A final resuspension was performed in a small volume of ice-cold Tris buffer (see above) by pressing through a serological pipet followed by ultrasonic treatment with a Branson Sonifier W-250 (Settings: Timer 1; Output Control 3; Duty Cycle constant; 1 cycle). Protein concentration was determined (BCA-Kit; Pierce) and aliquots stored at −80° C. or in liquid nitrogen for long-term storage.
(§2) 2. Receptor Binding Experiments
All receptor binding experiments were carried out in the corresponding assay buffer in a total volume of 200 μl in the presence of various concentrations of test compound (10^−5 M to 10^−9 M, tenfold serial dilution, duplicate determinations). The assays were terminated by filtration on polyethylenimine (PEI 0.1% or 0.3%) presoaked Packard Unifilter Plates (GF/C or GF/B) with a Tomtec MachIII U 96 well-plate harvester. After the plates had been dried for 2 h at 55° C. in a drying chamber scintillation cocktail (BetaPlate Scint; PerkinElmer) was added. Radioactivity was measured in a Microbeta Trilux two hours after the addition of the scintillation mixture. Data derived from liquid scintillation counting were analysed by iterative non-linear regression analysis with the use of the Statistical Analysis System (SAS): a program similar to “LIGAND” as described by Munson and Rodbard (Analytical Biochemistry 107, 220-239 (1980).
a) 5-HT6 Receptor Binding Assay
HEK293 cells stably expressing the h-5-HT6 receptor (NCBI Reference Sequence XM 001435) were cultured in RPMI1640 medium supplemented with 25 mM HEPES, 10% fetal calf serum and 1-2 mM glutamine. The membrane preparation was performed as described in section 1. […] Non-specific binding was defined with 1 μM methiothepin. The binding reaction was carried out for 3.5 h at room temperature. […]
Data derived from liquid scintillation counting were analyzed by iterative non-linear regression analysis with the use of the Statistical Analysis System (SAS): a program similar to “LIGAND” as described by Munson and Rodbard (Anal. Biochem. 1980, 107, 220-239). […] IC50, nH and Ki values were expressed as geometrical mean.

[2] = molecular target: T2, dopamine D2 receptor (Homo sapiens, UniProt P14416); assay: Dopamine D2 receptor binding assay (displacement of [125I]-iodospiperone); conditions: saturation binding experiments, HEK293 D2 membranes
T2 construct: expressed in transfected cells; host or cells: HEK293
Procedure: as §1
The pellets were stored at −80° C. until use. […] (Beckman Ultrazentrifuge XL 80).
as §2
b) Dopamine D2 Receptor Binding Assay
Non-specific binding was defined with 1 μM haloperidol.

[3] = membranes of HEK293 cells stably expressing h-5-HT6 receptor, 1 nM [3H]-LSD, read-out: Ki (5HT6)

T1 sequence (P50406 whole entry): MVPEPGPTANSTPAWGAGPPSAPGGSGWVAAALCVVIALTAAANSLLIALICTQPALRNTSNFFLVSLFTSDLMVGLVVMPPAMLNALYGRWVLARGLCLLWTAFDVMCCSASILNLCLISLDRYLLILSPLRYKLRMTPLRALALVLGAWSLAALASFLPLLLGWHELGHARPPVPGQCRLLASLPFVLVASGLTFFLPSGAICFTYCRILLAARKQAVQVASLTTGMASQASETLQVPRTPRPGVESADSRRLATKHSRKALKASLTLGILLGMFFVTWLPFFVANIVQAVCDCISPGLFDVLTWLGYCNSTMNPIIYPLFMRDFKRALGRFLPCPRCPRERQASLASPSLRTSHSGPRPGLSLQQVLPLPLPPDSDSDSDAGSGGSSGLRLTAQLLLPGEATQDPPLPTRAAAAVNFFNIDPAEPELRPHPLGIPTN
T2 sequence (P14416 whole entry): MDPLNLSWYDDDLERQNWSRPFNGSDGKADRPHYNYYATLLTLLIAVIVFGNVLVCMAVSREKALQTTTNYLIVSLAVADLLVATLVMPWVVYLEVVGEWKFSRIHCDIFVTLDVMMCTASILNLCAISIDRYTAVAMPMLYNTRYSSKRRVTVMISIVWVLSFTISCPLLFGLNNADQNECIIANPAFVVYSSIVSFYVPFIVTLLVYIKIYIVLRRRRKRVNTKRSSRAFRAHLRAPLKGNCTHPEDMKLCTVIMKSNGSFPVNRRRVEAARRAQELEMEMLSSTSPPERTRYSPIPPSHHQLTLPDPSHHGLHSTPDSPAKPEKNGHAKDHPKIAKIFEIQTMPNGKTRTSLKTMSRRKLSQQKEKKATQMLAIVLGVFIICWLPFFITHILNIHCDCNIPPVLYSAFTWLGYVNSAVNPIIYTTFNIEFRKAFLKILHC

Compound | Ki [1, 3] [nM] | further results
Cc1ccc(NS(=O)(=O)c2ccccc2OC(F)F)cc1N1CCCNCC1 [Example 2, N-(3-[1,4]Diazepan-1-yl-4-methyl-phenyl)-2-difluoromethoxy-benzenesulfonamide hydrochloride] | < 50 | 
Cc1ccc(N(C)S(=O)(=O)c2cccc(OC(F)F)c2)cc1N1CCCNCC1 [Example 3, N-(3-[1,4]Diazepan-1-yl-4-methyl-phenyl)-3-difluoromethoxy-N-methyl-benzenesulfonamide hydrochloride] | < 250 | 
Cc1ccc(NS(=O)(=O)c2cccc(OC(F)F)c2)cc1N1CCNCC1 [Example 1, 3-Difluoromethoxy-N-(4-methyl-3-piperazin-1-yl-phenyl)-benzenesulfonamide hydrochloride] |  | Ki [1]: < 20 nM
iodospiperone [[^125I]-iodospiperone] |  | Kd [2]: 0.22 nM

Second part, led by results:

Ki [1, 3] [nM] | Compound | further results
< 20 | Cc1ccc(NS(=O)(=O)c2cccc(OC(F)F)c2)cc1N1CCCNCC1 [Example 4, N-(3-[1,4]Diazepan-1-yl-4-methyl-phenyl)-3-difluoromethoxy-benzenesulfonamide hydrochloride] | 
< 20 | Cc1ccc(NS(=O)(=O)c2ccccc2OC(F)F)cc1N1CCCN(C)CC1 [Example 5, 2-Difluoromethoxy-N-[4-methyl-3-(4-methyl-[1,4]diazepan-1-yl)-phenyl]-benzenesulfonamide hydrochloride] | 
